In patent publication US8183263B2 (priority 2007, dated 2012):

tested on: HCV replicon; test: HCV replicon replication assay (NPT level by captured ELISA); format: cell-based; conditions: Hepatitis C virus, 72 h; Huh-7 HCV replicon-containing cells, three days incubation; read-out: Activity (inhibition of HCV replicon replication)
Summary of the method: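 Huh-7 cells carrying HCV subgenomic replicon (NS3–NS5B, neo reporter) treated 3 days at 37 °C with 6 concentrations from 10 to 0.03 micromolar in G418-free medium, equal DMSO across wells. Replication measured on day four as NPTII level by in-cell captured ELISA on fixed cells; interferon alpha as positive control.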

Row | SMILES | EC50 [µM]
1 | Cc1ccc(OCCCc2ccc(Nc3nc(-c4cccnc4)cs3)cc2C(F)(F)F)cc1 [Cmp 118, 4-(pyridin-3-yl)-N-(4-(3-(p-tolyloxy)propyl)-3-(trifluoromethyl)phenyl)thiazol-2-amine] | < 1
2 | CCCCCCCCOc1c(F)cc(Nc2nc(-c3cccnc3)c(F)s2)cc1F [Cmp 119, N-(3,5-difluoro-4-(octyloxy)phenyl)-5-fluoro-4-(pyridin-3-yl)thiazol-2-amine] | < 1
3 | CCCCCCCCOc1ccc(N(N)c2nc(-c3cccnc3)c(F)s2)cc1C(F)(F)F [Cmp 120, 5-fluoro-2-(1-(4-(octyloxy)-3-(trifluoromethyl)phenyl)hydrazinyl)-4-(pyridin-3-yl)thiazole] | < 1
4 | CCCCCCCCOc1ccc(Nc2nc(-c3cnc(OC)nc3)c(CN(C)C)s2)cc1C(F)(F)F [Cmp 121, 5-((dimethylamino)methyl)-4-(2-methoxypyrimidin-5-yl)-N-(4-(octyloxy)-3-(trifluoromethyl)phenyl)thiazol-2-amine] | 1 to 10
5 | CCCCCCCCC1Cc2ccc(Nc3nc(-c4cccnc4)cs3)cc2O1 (stereo not shown) [Cmp 123, N-(2-octyl-2,3-dihydrobenzofuran-6-yl)-4-(pyridin-3-yl)thiazol-2-amine] | < 1
6 | CCCCCCCCC1Cc2ccc(Nc3nc(-c4ccc(C)nc4)cs3)cc2O1 (stereo not shown) [Cmp 124, 4-(6-methylpyridin-3-yl)-N-(2-octyl-2,3-dihydrobenzofuran-6-yl)thiazol-2-amine] | < 1
7 | Cc1ccc(CCCCOc2cc(Nc3nc(-c4cccnc4)cs3)ccc2C(F)(F)F)cc1 [Cmp 125, 4-(pyridin-3-yl)-N-(3-(4-p-tolylbutoxy)-4-(trifluoromethyl)phenyl)thiazol-2-amine] | < 1
8 | Cc1ccc(CCCCOc2cc(Nc3nc(-c4cccnc4)c(F)s3)ccc2C(F)(F)F)cc1 [Cmp 126] | < 1
9 | Cc1ccc(OCCCc2ccc(Nc3nc(-c4cccnc4)c(F)s3)cc2C(F)(F)F)cc1 [Cmp 127, 5-fluoro-4-(pyridin-3-yl)-N-(4-(3-(p-tolyloxy)propyl)-3-(trifluoromethyl)phenyl)thiazol-2-amine] | < 1
10 | CCCCCCCCc1cc2cc(Nc3nc(-c4cccnc4)c(F)s3)ccc2o1 [Cmp 128, 5-fluoro-N-(2-octylbenzofuran-5-yl)-4-(pyridin-3-yl)thiazol-2-amine] | < 1
11 | CCCCCCCCC1Cc2ccc(Nc3nc(-c4cccnc4)c(F)s3)cc2O1 (stereo not shown) [Cmp 129, 5-fluoro-N-(2-octyl-2,3-dihydrobenzofuran-6-yl)-4-(pyridin-3-yl)thiazol-2-amine] | < 1
12 | CC(=O)c1cc(Nc2nc(-c3cccnc3)c(F)s2)ccc1Oc1ccc(Cl)cc1 [Cmp 130, 1-(2-(4-chlorophenoxy)-5-(5-fluoro-4-(pyridin-3-yl)thiazol-2-ylamino)phenyl)ethanone] | < 1
13 | CCc1ccc(Oc2ccc(Nc3nc(-c4cccnc4)c(F)s3)cc2C(C)=O)cc1 [Cmp 131, 1-(2-(4-ethylphenoxy)-5-(5-fluoro-4-(pyridin-3-yl)thiazol-2-ylamino)phenyl)ethanone] | < 1
14 | FC(F)(F)c1cc(Nc2nc(-c3cccnc3)cs2)ccc1CCCCOc1ccccc1 [Cmp 132] | < 1
15 | CCCCCCCCc1cc2ccc(Nc3nc(-c4cccnc4)c(F)s3)cc2o1 [Cmp 133, 5-fluoro-N-(2-octylbenzofuran-6-yl)-4-(pyridin-3-yl)thiazol-2-amine] | < 1
16 | CCCCCCCCc1ccc(Nc2nc(-c3ccc(OC(=O)[C@@H](N)C(C)C)nc3)cs2)cc1C(F)(F)F [Cmp 135, (S)-5-(2-(4-octyl-3-(trifluoromethyl)phenylamino)thiazol-4-yl)pyridin-2-yl 2-amino-3-methylbutanoate] | 1 to 10
17 | Fc1sc(Nc2ccc(CCCCOc3ccccc3)c(C(F)(F)F)c2)nc1-c1cccnc1 [Cmp 136, 5-fluoro-N-(4-(4-phenoxybutyl)-3-(trifluoromethyl)phenyl)-4-(pyridin-3-yl)thiazo1-2-amine] | < 1
18 | FC(F)(F)c1cc(Nc2nc(-c3cccnc3)cs2)ccc1OCCCCc1ccncc1 [Cmp 137, 4-(pyridin-3-yl)-N-(4-(4-(pyridin-4-yl)butoxy)-3-(trifluoromethyl)phenyl)thiazol-2-amine] | < 1
19 | CCCCCCCCc1c(F)cc(Nc2nc(-c3cccnc3)c(F)s2)cc1F [Cmp 138, N-(3,5-difluoro-4-octylphenyl)-5-fluoro-4-(pyridin-3-yl)thiazol-2-amine] | < 1
20 | Fc1sc(Nc2ccc(OCCOc3ccccc3)c(C(F)(F)F)c2)nc1-c1cccnc1 [Cmp 139, 5-fluoro-N-(4-(2-phenoxyethoxy)-3-(trifluoromethyl)phenyl)-4-(pyridin-3-yl)thiazol-2-amine] | < 1
21 | CCCCCCCCOc1ccc(Nc2nc(-c3cccnc3)cs2)cc1C(C)=O [Cmp 140, 1-(2-(octyloxy)-5-(4-(pyridin-3-yl)thiazol-2-ylamino)phenyl)ethanone] | < 1

Row | SMILES | EC50 [µM]
22 | CCCCCCCCOc1ccc(Nc2nc(-c3cccnc3)c(F)s2)cc1 [Cmp 141, 5-fluoro-N-(4-(octyloxy)phenyl)-4-(pyridin-3-yl)thiazol-2-amine] | < 1
23 | CCCCCCCCOc1ccc(Nc2nc(-c3ccc[n+](C)c3)cs2)cc1C(F)(F)F [Cmp 142, 1-methyl-3-(2-(4-(octyloxy)-3-(trifluoromethyl)phenylamino)thiazol-4-yl)pyridinium] | 1 to 10
24 | CCCCCCCCOc1ccc(Nc2ncc(Br)s2)cc1C(F)(F)F [Cmp 143, 5-bromo-N-(4-(octyloxy)-3-(trifluoromethyl)phenyl)thiazol-2-amine] | < 1
25 | CCCCCCCCOc1ccc(Nc2ncc(Oc3cccnc3)s2)cc1C(F)(F)F [Cmp 144, N-(4-(octyloxy)-3-(trifluoromethyl)phenyl)-5-(pyridin-3-yloxy)thiazol-2-amine] | < 1
26 | FC(F)(F)c1cc(Nc2nc(-c3cccnc3)cs2)ccc1OCCCCc1cnc2ccccc2c1 [Cmp 145, 4-(pyridin-3-yl)-N-(4-(4-(quinolin-3-yl)butoxy)-3-(trifluoromethyl)phenyl)thiazol-2-amine] | < 1
27 | CCCCCCCCOc1ccc(Nc2ncc(Sc3ccncc3)s2)cc1C(F)(F)F [Cmp 146, N-(4-(octyloxy)-3-(trifluoromethyl)phenyl)-5-(pyridin-4-ylthio)thiazol-2-amine] | 1 to 10
28 | O=c1cc(-c2ccccc2)oc2ccc(Nc3nc(-c4cccnc4)cs3)cc12 [Cmp 148, 2-phenyl-6-(4-(pyridin-3-yl)thiazol-2-ylamino)-4H-chromen-4-one] | > 10
29 | CCCCCCCCOc1ccc(Nc2nc(-c3cccnc3)c(F)s2)cc1C(C)=O [Cmp 149, 1-(5-(5-fluoro-4-(pyridin-3-yl)thiazol-2-ylamino)-2-(octyloxy)phenyl)ethanone] | < 1
30 | CC(C)(C)c1cc2cc(Nc3nc(-c4cccnc4)cs3)ccc2o1 [Cmp 150, N-(2-tert-butylbenzofuran-5-yl)-4-(pyridin-3-yl)thiazol-2-amine] | < 1
31 | CCCCCCCCOc1ccc(Nc2nc(-c3cccnc3)cs2)cc1S(C)(=O)=O [Cmp 151, N-(3-(methylsulfonyl)-4-(octyloxy)phenyl)-4-(pyridin-3-yl)thiazol-2-amine] | < 1
32 | CCCCCCCCOc1ccc(Nc2nc(-c3cncc(O)c3)cs2)cc1C(F)(F)F [Cmp 152, 5-(2-(4-(octyloxy)-3-(trifluoromethyl)phenylamino)thiazol-4-yl)pyridin-3-ol] | < 1
33 | c1ccc(CCc2cc3cc(Nc4nc(-c5cccnc5)cs4)ccc3o2)cc1 [Cmp 153, N-(2-phenethylbenzofuran-5-yl)-4-(pyridin-3-yl)thiazol-2-amine] | < 1
34 | CCCCCCCCOc1ccc(Nc2nc(-c3cccnc3)cs2)cc1C(=O)OC [Cmp 154, methyl 2-(octyloxy)-5-(4-(pyridin-3-yl)thiazol-2-ylamino)benzoate] | < 1
35 | CCCCCCCCOc1ccc(Nc2nc(-c3cccnc3)cs2)cc1C(=O)O [Cmp 155, 2-(octyloxy)-5-(4-(pyridin-3-yl)thiazol-2-ylamino)benzoic acid] | > 10
36 | CCCCCCCCOc1ccc(Nc2nc(-c3cccnc3)cs2)cc1C(N)=O [Cmp 156, 2-(octyloxy)-5-(4-(pyridin-3-yl)thiazol-2-ylamino)benzamide] | < 1
37 | CCCCCCCCOc1ccc(Nc2nc(-c3cccnc3)c(CN(C)C)s2)cc1C(F)(F)F [Cmp 157, 5-((dimethylamino)methyl)-N-(4-(octyloxy)-3-(trifluoromethyl)phenyl)-4-(pyridin-3-yl)thiazol-2-amine] | 1 to 10
38 | CCCCCCCCN(C)c1ccc(Nc2nc(-c3cccnc3)c(Cl)s2)cc1C(F)(F)F [Cmp 158, N^4-(5-chloro-4-(pyridin-3-yl)thiazol-2-yl)-N^1-methyl-N^1-octyl-2-(trifluoromethyl)benzene-1,4-diamine] | < 1
39 | CCCCCCCCOc1ccc(N(C)c2nc(-c3cccnc3)c(F)s2)cc1C(F)(F)F [Cmp 159, 5-fluoro-N-methyl-N-(4-(octyloxy)-3-(trifluoromethyl)phenyl)-4-(pyridin-3-yl)thiazol-2-amine] | < 1
40 | CCCCCCCCc1ccc(N(C)c2nc(-c3cccnc3)c(F)s2)cc1C(F)(F)F [Cmp 160, 5-fluoro-N-methyl-N-(4-octyl-3-(trifluoromethyl)phenyl)-4-(pyridin-3-yl)thiazol-2-amine] | 1 to 10
41 | CCCCCCCCc1ccc(Nc2nc(-c3cnccn3)cs2)cc1C(F)(F)F [Cmp 161, N-(4-octyl-3-(trifluoromethyl)phenyl)-4-(pyrazin-2-yl)thiazol-2-amine] | < 1
42 | CCCCCCCCOc1ccc(Nc2nc(-c3cnccn3)c(Cl)s2)cc1C(F)(F)F [Cmp 162, 5-chloro-N-(4-(octyloxy)-3-(trifluoromethyl)phenyl)-4-(pyrazin-2-yl)thiazol-2-amine] | < 1

same assay, conditions: Hepatitis C virus, Huh-7, 72 h, read-out: Activity (inhibition of HCV replicon replication)

Row | SMILES | EC50 [µM]
43 | CCCCCCCCc1ccc(Nc2nc(-c3ccc(OP(=O)(OC)OC)nc3)cs2)cc1C(F)(F)F [Cmp 134, dimethyl 5-(2-(4-octyl-3-(trifluoromethyl)phenylamino)thiazol-4-yl)pyridin-2-yl phosphate] | < 1
